Assay: xn = mol fraction of the nth substance listed
Details: Liquid, Vibrating tube method

COc1cc2c(cc1O)CC1c3c(cc(O)c(OC)c3-2)CCN1C (stereo not given) [boldine] + CCCO
Details | mass density [kg/m3]
343.02 K, 16000 kPa, x1 = 0.0112 | 795.93
343.02 K, 17000 kPa, x1 = 0.0112 | 796.79
343.02 K, 18000 kPa, x1 = 0.0112 | 797.62
343.02 K, 19000 kPa, x1 = 0.0112 | 798.46
343.02 K, 20000 kPa, x1 = 0.0112 | 799.28
343.04 K, 1000 kPa, x1 = 0.0046 | 771.67
343.04 K, 2000 kPa, x1 = 0.0046 | 772.63
343.04 K, 3000 kPa, x1 = 0.0046 | 773.6
343.04 K, 4000 kPa, x1 = 0.0046 | 774.56
343.04 K, 5000 kPa, x1 = 0.0046 | 775.44
343.04 K, 6000 kPa, x1 = 0.0046 | 776.45
343.04 K, 7000 kPa, x1 = 0.0046 | 777.41
343.04 K, 8000 kPa, x1 = 0.0046 | 778.35
343.04 K, 9000 kPa, x1 = 0.0046 | 779.29
343.04 K, 10000 kPa, x1 = 0.0046 | 780.23
343.04 K, 11000 kPa, x1 = 0.0046 | 781.16
343.04 K, 12000 kPa, x1 = 0.0046 | 782.09
343.04 K, 13000 kPa, x1 = 0.0046 | 782.98
343.04 K, 14000 kPa, x1 = 0.0046 | 783.89
343.04 K, 15000 kPa, x1 = 0.0046 | 784.78
343.04 K, 16000 kPa, x1 = 0.0046 | 785.65
343.04 K, 17000 kPa, x1 = 0.0046 | 786.52
343.04 K, 18000 kPa, x1 = 0.0046 | 787.37
343.04 K, 19000 kPa, x1 = 0.0046 | 788.26
343.04 K, 20000 kPa, x1 = 0.0046 | 789.03
352.94 K, 1000 kPa, x1 = 0.0018 | 756.19
352.94 K, 1000 kPa, x1 = 0.0112 | 772.97
352.94 K, 1000 kPa, x1 = 0.0142 | 777.66
352.94 K, 2000 kPa, x1 = 0.0018 | 757.24
352.94 K, 2000 kPa, x1 = 0.0112 | 774.02
352.94 K, 2000 kPa, x1 = 0.0142 | 778.69
352.94 K, 3000 kPa, x1 = 0.0018 | 758.3
352.94 K, 3000 kPa, x1 = 0.0112 | 775.24
352.94 K, 3000 kPa, x1 = 0.0142 | 779.72
352.94 K, 4000 kPa, x1 = 0.0018 | 759.35
352.94 K, 4000 kPa, x1 = 0.0112 | 776.07
352.94 K, 4000 kPa, x1 = 0.0142 | 780.73
352.94 K, 5000 kPa, x1 = 0.0018 | 760.39
352.94 K, 5000 kPa, x1 = 0.0112 | 777.15
352.94 K, 5000 kPa, x1 = 0.0142 | 781.74
352.94 K, 6000 kPa, x1 = 0.0018 | 761.42
352.94 K, 6000 kPa, x1 = 0.0112 | 778.1
352.94 K, 6000 kPa, x1 = 0.0142 | 782.74
352.94 K, 7000 kPa, x1 = 0.0018 | 762.46
352.94 K, 7000 kPa, x1 = 0.0112 | 779.1
352.94 K, 7000 kPa, x1 = 0.0142 | 783.74
352.94 K, 8000 kPa, x1 = 0.0018 | 763.48
352.94 K, 8000 kPa, x1 = 0.0112 | 780.11
352.94 K, 8000 kPa, x1 = 0.0142 | 784.73
352.94 K, 9000 kPa, x1 = 0.0018 | 764.5
352.94 K, 9000 kPa, x1 = 0.0112 | 781.09
352.94 K, 9000 kPa, x1 = 0.0142 | 785.73
352.94 K, 10000 kPa, x1 = 0.0018 | 765.51
352.94 K, 10000 kPa, x1 = 0.0112 | 782.07
352.94 K, 10000 kPa, x1 = 0.0142 | 786.7
352.94 K, 11000 kPa, x1 = 0.0018 | 766.51
352.94 K, 11000 kPa, x1 = 0.0112 | 783.04
352.94 K, 11000 kPa, x1 = 0.0142 | 787.66
352.94 K, 12000 kPa, x1 = 0.0018 | 767.49
352.94 K, 12000 kPa, x1 = 0.0112 | 784.02
352.94 K, 12000 kPa, x1 = 0.0142 | 788.61
352.94 K, 13000 kPa, x1 = 0.0018 | 768.45
352.94 K, 13000 kPa, x1 = 0.0112 | 784.98
352.94 K, 13000 kPa, x1 = 0.0142 | 789.57
352.94 K, 14000 kPa, x1 = 0.0018 | 769.42
352.94 K, 14000 kPa, x1 = 0.0112 | 785.8
352.94 K, 14000 kPa, x1 = 0.0142 | 790.48
352.94 K, 15000 kPa, x1 = 0.0018 | 770.37
352.94 K, 15000 kPa, x1 = 0.0112 | 786.85
352.94 K, 15000 kPa, x1 = 0.0142 | 791.41
352.94 K, 16000 kPa, x1 = 0.0018 | 771.31
352.94 K, 16000 kPa, x1 = 0.0112 | 787.79
352.94 K, 16000 kPa, x1 = 0.0142 | 792.32
352.94 K, 17000 kPa, x1 = 0.0018 | 772.22
352.94 K, 17000 kPa, x1 = 0.0112 | 788.61
